Assay results taken from publication PMC5563081, “Modulating Protein-Protein Interactions of the Mitotic Polo-like Kinases to Target Mutant KRAS” (Cell Chemical Biology, 2017).
Read-outs that look alike come from different tables or passages of the source.

What was measured:
HeLa cells = experiment: Mitotic index assay in HeLa cells; format: cell-based, human; details: for EC50: Homo sapiens
Protocol: Cells were plated at 10 000/well in 96-well plates and incubated overnight. The following day compound stocks in DMSO were diluted in medium then added to cells with a maximum final DMSO concentration on cells of 0.2%. […] Cells were permeabilised with 0.1% Triton X-100 then incubated with anti-phospho-histone H3 (Ser10) antibody (Abcam ab5176). The cells were washed with PBS then incubated with AlexaFluor 488 labelled goat anti-rabbit IgG (Invitrogen A11034) in the presence of 4ug/ml Hoechst 33342 (Invitrogen H3570). Cells were washed in PBS then imaged on an Arrayscan VTi HCS instrument (Thermo Fisher) using the Target Activation V4 Bioapplication. A user-defined threshold was applied to identify mitotic cells based on the intensity of phospho-histone H3 staining.

[1] = tested on: murine pancreatic organoids KRAS MUT p53 MUT; experiment: Viability of pancreatic organoids (CellTitre Glo 3D), KRAS G12D; format: cell-based; details: Mus musculus
Protocol: Organoid cultures were prepared from the pancreas of LSL-Trp53^R172H/+, Pdx-1-Cre (for Kras WT organoids) or LSL-Trp53^R172H/+, LSL-Kras^G12D/+, Pdx-1-Cre (for Kras^G12D organoids KPC3760 and KPC26684) strains ([Hingorani et al., 2005]). Pancreatic ducts were manually picked after tissue mincing and overnight enzymatic digestion with 0.012% (w/v) collagenase XI (Sigma) and 0.012% (w/v) dispase (GIBCO) in DMEM media containing 1% FBS (GIBCO), before seeding in growth-factor-reduced (GFR) Matrigel (BD) ([Boj et al., 2015]).
Pancreatic organoids were extracted and cultured as detailed above ([Boj et al., 2015]). In brief, pancreatic organoids were seeded at 600 cells per well in a 96 well plate and allowed to grow for 7 days with media replenishment on the 3rd day. Full-grown organoids were then treated with compounds for 72h and viability determined using CellTitre Glo 3D assay (Promega). For viability assays with c-MET siRNA, cells were reverse transfected in a 6 cm dish using Dharmafect 1 (GE Dharmacon) per manufacturer’s instructions. On the following day, cells were trypsinised and plated onto 96 well plates or 6 well plates. The 96 well plates were treated with a dose range of compounds or DMSO, and viability was determined via SRB colorimetric assay. Cells in the 6 well plates were collected at the end of experiment to corroborate knockdown of c-MET by Western blotting.

[2] = biological target: T1, PLK1 kinase catalytic domain (Homo sapiens, UniProt P53350); experiment: DiscoverX KINOMEscan; format: binding; details: read-out: % Control
T1 construct: PLK1 kinase catalytic domain; purchased DiscoverX KINOMEscan
Protocol: (§1) A panel of 55 proteins (comprising 51 human kinases structurally or functionally related to the PLKs, plus the kinase catalytic domains of PLK1, PLK2, PLK3 and PLK4) were selected for testing by DiscoverX using the KINOMEscan assay platform. Compounds were supplied as 40x DMSO stocks and were tested at a final concentration of 50μM for Poloppin and 5μM for Poloppin-II. Binding interactions were reported as percentage of control where lower numbers indicate stronger binding. A cut-off of <35% was applied to report significant binding.

[3] = biological target: T2, PLK4 kinase catalytic domain (Homo sapiens, UniProt O00444); experiment: DiscoverX KINOMEscan; format: binding; details: read-out: % Control
T2 construct: PLK4 kinase catalytic domain; purchased DiscoverX KINOMEscan
Protocol: as §1

NEK1 = biological target: T3, NEK1 (Homo sapiens, UniProt Q96PY6); experiment: DiscoverX KINOMEscan; format: binding; details: read-out: % Control
T3 construct: purchased DiscoverX KINOMEscan
Protocol: as §1

STK16 = biological target: T4, STK16 (Homo sapiens, UniProt O75716); experiment: DiscoverX KINOMEscan; format: binding; details: read-out: % Control
T4 construct: purchased DiscoverX KINOMEscan
Protocol: as §1

CAMKK2 = biological target: T5, CAMKK2 (Homo sapiens, UniProt Q96RR4); experiment: DiscoverX KINOMEscan; format: binding; details: read-out: % Control
T5 construct: purchased DiscoverX KINOMEscan
Protocol: as §1

BUB1 = biological target: T6, BUB1 (Homo sapiens, UniProt O43683); experiment: DiscoverX KINOMEscan; format: binding; details: read-out: % Control
T6 construct: purchased DiscoverX KINOMEscan
Protocol: as §1

SBK1 = biological target: T7, SBK1 (Homo sapiens, UniProt Q52WX2); experiment: DiscoverX KINOMEscan; format: binding; details: read-out: % Control
T7 construct: purchased DiscoverX KINOMEscan
Protocol: as §1

ULK3 = biological target: T8, ULK3 (Homo sapiens, UniProt Q6PHR2); experiment: DiscoverX KINOMEscan; format: binding; details: read-out: % Control
T8 construct: purchased DiscoverX KINOMEscan
Protocol: as §1

CAMKK1 = biological target: T9, CAMKK1 (Homo sapiens, UniProt Q8N5S9); experiment: DiscoverX KINOMEscan; format: binding; details: read-out: % Control
T9 construct: purchased DiscoverX KINOMEscan
Protocol: as §1

[4] = biological target: T10, PLK2 kinase catalytic domain (Homo sapiens, UniProt Q9NYY3); experiment: DiscoverX KINOMEscan; format: binding; details: read-out: % Control
T10 construct: PLK2 kinase catalytic domain; purchased DiscoverX KINOMEscan
Protocol: as §1

AURKB = biological target: T11, AURKB (Homo sapiens, UniProt Q96GD4); experiment: DiscoverX KINOMEscan; format: binding; details: read-out: % Control
T11 construct: purchased DiscoverX KINOMEscan
Protocol: as §1

[5] = biological target: T12, PLK3 kinase catalytic domain (Homo sapiens, UniProt Q9H4B4); experiment: DiscoverX KINOMEscan; format: binding; details: read-out: % Control
T12 construct: PLK3 kinase catalytic domain; purchased DiscoverX KINOMEscan
Protocol: as §1

CDK2 = biological target: T13, CDK2 (Homo sapiens, UniProt P24941); experiment: DiscoverX KINOMEscan; format: binding; details: read-out: % Control
T13 construct: purchased DiscoverX KINOMEscan
Protocol: as §1

WNK3 = biological target: T14, WNK3 (Homo sapiens, UniProt Q9BYP7); experiment: DiscoverX KINOMEscan; format: binding; details: read-out: % Control
T14 construct: purchased DiscoverX KINOMEscan
Protocol: as §1

WNK4 = biological target: T15, WNK4 (Homo sapiens, UniProt Q96J92); experiment: DiscoverX KINOMEscan; format: binding; details: read-out: % Control
T15 construct: purchased DiscoverX KINOMEscan
Protocol: as §1

ROCK2 = biological target: T16, ROCK2 (Homo sapiens, UniProt O75116); experiment: DiscoverX KINOMEscan; format: binding; details: read-out: % Control
T16 construct: purchased DiscoverX KINOMEscan
Protocol: as §1

DSTYK = biological target: T17, DSTYK (Homo sapiens, UniProt Q6XUX3); experiment: DiscoverX KINOMEscan; format: binding; details: read-out: % Control
T17 construct: purchased DiscoverX KINOMEscan
Protocol: as §1

ULK1 = biological target: T18, ULK1 (Homo sapiens, UniProt O75385); experiment: DiscoverX KINOMEscan; format: binding; details: read-out: % Control
T18 construct: purchased DiscoverX KINOMEscan
Protocol: as §1

PKMYT1 = biological target: T19, PKMYT1 (Homo sapiens, UniProt Q99640); experiment: DiscoverX KINOMEscan; format: binding; details: read-out: % Control
T19 construct: purchased DiscoverX KINOMEscan
Protocol: as §1

CHUK = biological target: T20, CHUK (Homo sapiens, UniProt O15111); experiment: DiscoverX KINOMEscan; format: binding; details: read-out: % Control
T20 construct: purchased DiscoverX KINOMEscan
Protocol: as §1

EIF2AK2 = biological target: T21, EIF2AK2 (Homo sapiens, UniProt P19525); experiment: DiscoverX KINOMEscan; format: binding; details: read-out: % Control
T21 construct: purchased DiscoverX KINOMEscan
Protocol: as §1

NEK10 = biological target: T22, NEK10 (Homo sapiens, UniProt Q6ZWH5); experiment: DiscoverX KINOMEscan; format: binding; details: read-out: % Control
T22 construct: purchased DiscoverX KINOMEscan
Protocol: as §1

NEK11 = biological target: T23, NEK11 (Homo sapiens, UniProt Q8NG66); experiment: DiscoverX KINOMEscan; format: binding; details: read-out: % Control
T23 construct: purchased DiscoverX KINOMEscan
Protocol: as §1

NEK6 = biological target: T24, NEK6 (Homo sapiens, UniProt Q9HC98); experiment: DiscoverX KINOMEscan; format: binding; details: read-out: % Control
T24 construct: purchased DiscoverX KINOMEscan
Protocol: as §1

[6] = HeLa, Figure 5A, read-out: MI EC50 (cellular assay for mitotic arrest)

T14 sequence (Q9BYP7 whole entry): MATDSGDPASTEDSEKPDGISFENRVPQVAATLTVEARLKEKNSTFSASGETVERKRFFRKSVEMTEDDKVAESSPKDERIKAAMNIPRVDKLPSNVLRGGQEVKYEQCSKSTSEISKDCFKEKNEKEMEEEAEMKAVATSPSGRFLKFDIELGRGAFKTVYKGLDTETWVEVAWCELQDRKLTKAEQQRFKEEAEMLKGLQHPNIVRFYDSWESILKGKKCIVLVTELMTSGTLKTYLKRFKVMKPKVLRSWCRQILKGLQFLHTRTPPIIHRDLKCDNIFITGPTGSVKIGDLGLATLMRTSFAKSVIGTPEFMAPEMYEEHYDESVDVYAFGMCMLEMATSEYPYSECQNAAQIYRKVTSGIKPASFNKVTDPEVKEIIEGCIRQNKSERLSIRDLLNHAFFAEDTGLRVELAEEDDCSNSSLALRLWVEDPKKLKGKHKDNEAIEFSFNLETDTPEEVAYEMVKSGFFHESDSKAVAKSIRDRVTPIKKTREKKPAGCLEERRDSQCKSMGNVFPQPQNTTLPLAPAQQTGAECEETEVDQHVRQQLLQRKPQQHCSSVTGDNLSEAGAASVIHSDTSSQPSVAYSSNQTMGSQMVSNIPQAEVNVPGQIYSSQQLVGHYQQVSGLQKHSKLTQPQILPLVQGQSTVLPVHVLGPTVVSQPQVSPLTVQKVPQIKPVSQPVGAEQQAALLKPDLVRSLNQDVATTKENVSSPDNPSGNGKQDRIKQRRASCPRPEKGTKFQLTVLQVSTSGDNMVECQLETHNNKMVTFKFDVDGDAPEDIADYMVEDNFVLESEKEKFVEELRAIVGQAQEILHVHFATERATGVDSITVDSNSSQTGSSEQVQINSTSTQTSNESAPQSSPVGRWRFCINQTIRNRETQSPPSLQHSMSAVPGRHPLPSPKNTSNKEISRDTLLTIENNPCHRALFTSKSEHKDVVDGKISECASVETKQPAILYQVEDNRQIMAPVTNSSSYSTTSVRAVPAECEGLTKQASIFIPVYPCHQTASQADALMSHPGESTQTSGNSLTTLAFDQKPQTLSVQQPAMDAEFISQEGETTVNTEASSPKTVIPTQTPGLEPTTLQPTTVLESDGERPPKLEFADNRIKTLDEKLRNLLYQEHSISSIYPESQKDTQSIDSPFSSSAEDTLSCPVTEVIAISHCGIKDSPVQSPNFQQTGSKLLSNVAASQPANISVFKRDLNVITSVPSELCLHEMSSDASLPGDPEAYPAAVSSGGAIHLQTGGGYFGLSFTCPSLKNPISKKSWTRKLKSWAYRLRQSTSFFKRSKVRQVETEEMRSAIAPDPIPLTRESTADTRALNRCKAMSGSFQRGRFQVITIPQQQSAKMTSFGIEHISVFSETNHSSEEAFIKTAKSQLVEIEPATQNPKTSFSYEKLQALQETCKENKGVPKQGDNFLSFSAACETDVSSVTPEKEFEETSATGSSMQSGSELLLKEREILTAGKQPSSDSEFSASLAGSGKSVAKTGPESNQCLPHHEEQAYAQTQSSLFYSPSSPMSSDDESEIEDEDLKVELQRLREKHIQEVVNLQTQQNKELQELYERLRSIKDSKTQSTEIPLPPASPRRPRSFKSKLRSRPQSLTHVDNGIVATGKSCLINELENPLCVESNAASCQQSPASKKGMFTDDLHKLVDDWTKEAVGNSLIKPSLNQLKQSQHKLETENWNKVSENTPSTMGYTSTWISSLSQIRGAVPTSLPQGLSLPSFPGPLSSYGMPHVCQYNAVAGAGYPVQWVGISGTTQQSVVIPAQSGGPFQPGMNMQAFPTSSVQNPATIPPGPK
T7 sequence (Q52WX2 whole entry): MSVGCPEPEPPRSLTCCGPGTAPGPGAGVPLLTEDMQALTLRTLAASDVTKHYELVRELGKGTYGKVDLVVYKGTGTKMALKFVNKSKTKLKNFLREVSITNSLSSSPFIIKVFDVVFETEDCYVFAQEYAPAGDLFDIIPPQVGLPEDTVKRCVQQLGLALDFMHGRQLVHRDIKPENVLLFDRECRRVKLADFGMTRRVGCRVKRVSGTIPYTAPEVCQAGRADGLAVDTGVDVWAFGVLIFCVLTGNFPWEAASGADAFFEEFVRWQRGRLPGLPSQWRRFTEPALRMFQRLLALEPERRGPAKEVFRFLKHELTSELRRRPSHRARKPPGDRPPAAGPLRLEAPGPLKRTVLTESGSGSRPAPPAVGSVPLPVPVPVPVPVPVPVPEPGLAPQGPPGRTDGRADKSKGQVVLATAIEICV
T2 sequence (O00444 12-265 limits assumed): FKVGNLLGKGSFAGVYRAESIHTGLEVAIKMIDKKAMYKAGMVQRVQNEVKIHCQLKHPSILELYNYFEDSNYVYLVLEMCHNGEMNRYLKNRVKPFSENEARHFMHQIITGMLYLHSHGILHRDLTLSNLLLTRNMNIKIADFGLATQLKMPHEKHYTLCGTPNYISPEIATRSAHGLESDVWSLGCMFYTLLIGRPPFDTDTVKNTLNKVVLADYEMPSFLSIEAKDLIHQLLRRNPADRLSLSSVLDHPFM
T12 sequence (Q9H4B4 62-314 limits assumed): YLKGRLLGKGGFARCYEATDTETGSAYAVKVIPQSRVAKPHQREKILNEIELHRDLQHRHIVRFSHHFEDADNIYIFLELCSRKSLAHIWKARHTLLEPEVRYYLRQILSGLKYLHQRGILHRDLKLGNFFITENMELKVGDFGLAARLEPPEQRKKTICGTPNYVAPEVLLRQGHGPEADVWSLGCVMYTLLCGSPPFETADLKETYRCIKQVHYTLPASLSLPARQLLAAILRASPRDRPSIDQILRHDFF
T9 sequence (Q8N5S9 whole entry): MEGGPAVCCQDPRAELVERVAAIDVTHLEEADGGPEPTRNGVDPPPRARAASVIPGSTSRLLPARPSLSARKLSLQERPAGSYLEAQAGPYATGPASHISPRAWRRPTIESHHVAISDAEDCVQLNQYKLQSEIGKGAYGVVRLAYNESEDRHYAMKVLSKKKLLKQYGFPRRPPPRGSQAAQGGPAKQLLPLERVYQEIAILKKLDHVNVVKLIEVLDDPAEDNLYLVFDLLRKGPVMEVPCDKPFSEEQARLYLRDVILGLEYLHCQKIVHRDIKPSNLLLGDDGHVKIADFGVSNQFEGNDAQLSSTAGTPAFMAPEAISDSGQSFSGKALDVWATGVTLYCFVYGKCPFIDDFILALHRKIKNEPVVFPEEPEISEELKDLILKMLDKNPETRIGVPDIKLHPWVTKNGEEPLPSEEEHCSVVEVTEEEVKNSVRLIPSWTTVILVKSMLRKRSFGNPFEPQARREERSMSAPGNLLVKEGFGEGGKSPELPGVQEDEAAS
T6 sequence (O43683 whole entry): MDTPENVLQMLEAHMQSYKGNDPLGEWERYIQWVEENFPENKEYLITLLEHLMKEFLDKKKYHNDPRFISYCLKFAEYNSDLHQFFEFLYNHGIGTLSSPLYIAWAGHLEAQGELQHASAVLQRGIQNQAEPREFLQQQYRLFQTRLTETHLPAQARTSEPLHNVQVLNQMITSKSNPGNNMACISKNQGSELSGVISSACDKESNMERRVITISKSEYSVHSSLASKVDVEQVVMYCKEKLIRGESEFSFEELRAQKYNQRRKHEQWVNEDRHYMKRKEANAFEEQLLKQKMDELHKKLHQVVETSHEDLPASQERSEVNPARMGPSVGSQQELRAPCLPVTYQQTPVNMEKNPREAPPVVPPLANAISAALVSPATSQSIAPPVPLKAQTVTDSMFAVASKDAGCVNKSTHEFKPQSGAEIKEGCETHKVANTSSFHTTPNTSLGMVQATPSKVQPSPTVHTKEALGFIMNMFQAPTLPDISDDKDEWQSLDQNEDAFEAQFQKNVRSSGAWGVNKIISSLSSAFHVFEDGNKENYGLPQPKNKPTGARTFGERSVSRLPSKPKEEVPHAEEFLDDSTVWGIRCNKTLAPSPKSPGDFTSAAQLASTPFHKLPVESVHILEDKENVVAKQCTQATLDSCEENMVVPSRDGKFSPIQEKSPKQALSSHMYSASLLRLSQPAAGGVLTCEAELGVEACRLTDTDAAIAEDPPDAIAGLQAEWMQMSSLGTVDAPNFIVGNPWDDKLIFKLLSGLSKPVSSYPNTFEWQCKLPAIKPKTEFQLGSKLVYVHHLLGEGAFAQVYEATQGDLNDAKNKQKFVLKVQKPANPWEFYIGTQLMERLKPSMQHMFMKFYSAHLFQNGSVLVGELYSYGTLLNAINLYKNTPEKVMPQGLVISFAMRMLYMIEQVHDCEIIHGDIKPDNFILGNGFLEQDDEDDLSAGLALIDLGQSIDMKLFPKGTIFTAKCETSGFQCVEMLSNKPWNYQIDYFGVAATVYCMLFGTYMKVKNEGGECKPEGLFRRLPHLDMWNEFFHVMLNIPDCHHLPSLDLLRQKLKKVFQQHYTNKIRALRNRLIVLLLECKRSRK
T20 sequence (O15111 whole entry): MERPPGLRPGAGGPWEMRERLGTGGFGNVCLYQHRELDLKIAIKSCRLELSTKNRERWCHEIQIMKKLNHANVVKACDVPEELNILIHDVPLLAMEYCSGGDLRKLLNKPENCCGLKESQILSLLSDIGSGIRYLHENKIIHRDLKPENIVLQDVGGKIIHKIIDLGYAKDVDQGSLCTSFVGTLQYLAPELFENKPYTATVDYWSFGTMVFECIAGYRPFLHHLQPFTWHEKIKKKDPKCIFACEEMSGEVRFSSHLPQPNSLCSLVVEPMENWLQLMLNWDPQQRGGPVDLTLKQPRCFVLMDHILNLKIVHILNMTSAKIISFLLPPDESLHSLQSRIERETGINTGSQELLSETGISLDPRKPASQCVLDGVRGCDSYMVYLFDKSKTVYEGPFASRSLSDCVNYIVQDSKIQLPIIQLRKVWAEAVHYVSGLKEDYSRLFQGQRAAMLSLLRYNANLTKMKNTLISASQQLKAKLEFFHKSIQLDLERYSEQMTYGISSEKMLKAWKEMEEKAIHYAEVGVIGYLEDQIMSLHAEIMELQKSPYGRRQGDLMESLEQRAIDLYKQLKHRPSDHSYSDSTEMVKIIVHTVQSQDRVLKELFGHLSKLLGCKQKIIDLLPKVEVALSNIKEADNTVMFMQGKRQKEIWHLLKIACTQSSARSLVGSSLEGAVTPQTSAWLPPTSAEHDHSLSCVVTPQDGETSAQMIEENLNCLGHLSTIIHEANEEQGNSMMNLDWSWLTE

CN(C)CCNC(=O)c1ccc(-c2ccc(-c3ccc(Cl)cc3)n2-c2ccccc2C(F)(F)F)cc1 [Poloppin-II] showed an EC50 (HeLa cells; [6]) of 0.069 µM, an EC50 (HeLa cells; HeLa cells, Figure 5B, read-out: half maximal effective concentration, cellular assay for mitotic arrest) of 0.061 µM and a GI50 ([1]; organoids KRAS MUT p53 MUT #2, n=2, read-out: Mean GI50) of 22.9 µM. It also gave a remaining binding at 5 µM ([2]; PLK1, Poloppin-II 5µM, hit <35%) of 100%, a remaining binding at 5 µM ([3]; PLK4, Poloppin-II 5µM, hit <35%) of 90% and a remaining binding at 5 µM (NEK1; NEK1, Poloppin-II 5µM, hit <35%) of 100%. The remaining binding at 5 µM (STK16; STK16, Poloppin-II 5µM, hit <35%) was 92%, the remaining binding at 5 µM (CAMKK2; CAMKK2, Poloppin-II 5µM, hit <35%) was 97% and the remaining binding at 5 µM (BUB1; BUB1, Poloppin-II 5µM, hit <35%) was 90%. For the same compound, the remaining binding at 5 µM (SBK1; SBK1, Poloppin-II 5µM, hit <35%) was 61%, the remaining binding at 5 µM (ULK3; ULK3, Poloppin-II 5µM, hit <35%) was 88% and the remaining binding at 5 µM (CAMKK1; CAMKK1, Poloppin-II 5µM, hit <35%) was 91%. For the same compound, the remaining binding at 5 µM ([4]; PLK2, Poloppin-II 5µM, hit <35%) was 85%, the remaining binding at 5 µM (AURKB; AURKB, Poloppin-II 5µM, hit <35%) was 95% and the remaining binding at 5 µM ([5]; PLK3, Poloppin-II 5µM, hit <35%) was 74%. It also gave a remaining binding at 5 µM (CDK2; CDK2, Poloppin-II 5µM, hit <35%) of 89%, a remaining binding at 5 µM (WNK3; WNK3, Poloppin-II 5µM, hit <35%) of 100% and a remaining binding at 5 µM (WNK4; WNK4, Poloppin-II 5µM, hit <35%) of 91%. The remaining binding at 5 µM (ROCK2; ROCK2, Poloppin-II 5µM, hit <35%) was 100%, the remaining binding at 5 µM (DSTYK; DSTYK, Poloppin-II 5µM, hit <35%) was 75% and the remaining binding at 5 µM (ULK1; ULK1, Poloppin-II 5µM, hit <35%) was 84%. The remaining binding at 5 µM (PKMYT1; PKMYT1, Poloppin-II 5µM, hit <35%) was 100%, the remaining binding at 5 µM (CHUK; CHUK, Poloppin-II 5µM, hit <35%) was 100% and the remaining binding at 5 µM (EIF2AK2; EIF2AK2, Poloppin-II 5µM, hit <35%) was 90%. The remaining binding at 5 µM (NEK10; NEK10, Poloppin-II 5µM, hit <35%) was 94%, the remaining binding at 5 µM (NEK11; NEK11, Poloppin-II 5µM, hit <35%) was 100% and the remaining binding at 5 µM (NEK6; NEK6, Poloppin-II 5µM, hit <35%) was 99%.
With O=C(O)CCc1ccc(-c2ccc(Br)cc2)n1-c1ccccc1C(F)(F)F [Poloppin] the “EC50, mitotic index assay” value (HeLa cells; HeLa cells treated for 16 hr, Figure 5B) was 14.6 µM, the EC50 (HeLa cells; [6]) was 14.1 µM and the GI50 ([1]; read-out: Mean GI50, organoids KRAS MUT p53 MUT #1, n=2) was 22.9 µM. It also gave a GI50 ([1]; read-out: Mean GI50, organoids KRAS MUT p53 MUT #2, n=2) of 28.4 µM, a remaining binding at 50 µM [2] of 100% and a remaining binding at 50 µM [3] of 88%. The remaining binding at 50 µM (NEK1) was 57%, the remaining binding at 50 µM (STK16) was 81% and the remaining binding at 50 µM (CAMKK2) was 82%. For the same compound, the remaining binding at 50 µM (BUB1) was 99%, the remaining binding at 50 µM (SBK1) was 61% and the remaining binding at 50 µM (ULK3) was 94%. For the same compound, the remaining binding at 50 µM (CAMKK1) was 77%, the remaining binding at 50 µM [4] was 78% and the remaining binding at 50 µM (AURKB) was 87%. It also gave a remaining binding at 50 µM [5] of 83%, a remaining binding at 50 µM (CDK2) of 84% and a remaining binding at 50 µM (WNK3) of 100%. It also gave a remaining binding at 50 µM (WNK4) of 100%, a remaining binding at 50 µM (ROCK2) of 100% and a remaining binding at 50 µM (DSTYK) of 49%. The remaining binding at 50 µM (ULK1) was 84%, the remaining binding at 50 µM (PKMYT1) was 98% and the remaining binding at 50 µM (CHUK) was 100%. The remaining binding at 50 µM (EIF2AK2) was 69%, the remaining binding at 50 µM (NEK10) was 98% and the remaining binding at 50 µM (NEK11) was 100%. For the same compound, the remaining binding at 50 µM (NEK6) was 96%.
